Experimental findings from patent US12048691B2 (SPERO THERAPEUTICS, INC., priority 2020, dated 2024) are described below.

Values after ≈ are worked out from the molar mass of the structure shown. Where two headings read alike, the source gives them in different places. Bounds are passed on as bounds.

Holding throughout (assay type): cell-based
The subject of experiment [1] is Vancomycin-susceptible Enterococcus faecalis. Description: Broth microdilution against Gram-positive clinical isolates. Conditions: E. faecalis. Here is the method:
(§1) The purpose of this study was to investigate the in vitro activity of tebipenem and comparator agents, including ertapenem and meropenem, against a recent collection of Gram-positive isolates associated with clinical infections. The susceptibility of 580 Gram-positive organisms were tested, including: Methicillin-susceptible Staphylococcus aureus (MSSA, 489 isolates), Methicillin-susceptible Staphylococcus epidermidis (MSSE, 31), other methicillin-susceptible coagulase-negative staphylococci (MSCONS, 29), and Vancomycin-susceptible Enterococcus faecalis (31). Bacterial species were identified by JMI Laboratories using standard microbiology methods and matrix-assisted laser desorption ionization-time of flight mass spectrometry (Bruker Daltonics, Bremen, Germany). The isolates were collected in 2018 and 2019 as part of the SENTRY surveillance program and selected to be representative of these species with 45.0% from the United States, 44.3% from Europe, 5.3% from the Asia-Pacific region, and 5.3% from Latin America. Isolates are primarily from pneumonia in hospitalized patients (498 isolates; 85.9%), urinary tract infections (42 isolates; 7.2%), and bloodstream infections (38 isolates; 6.6%). Isolates were tested in a central laboratory (JMI Laboratories) for antimicrobial susceptibility using the CLSI M07 (2018) reference broth microdilution method. JMI Laboratories produced frozen-form 96-well panels and used cation-adjusted Mueller-Hinton broth (CA-MHB) as the testing medium. All categorical interpretations used CLSI M100 (2021) and EUCAST v10.0 (2021) breakpoint criteria, where published. Quality control organisms include Escherichia coli ATCC 25922, Escherichia coli ATCC 35218, Enterococcus faecalis ATCC 29212, Pseudomonas aeruginosa ATCC 27853, and Staphylococcus aureus ATCC 29213 were tested concurrently with clinical isolates.
Background: Broth dilution looks for growth in wells or tubes with falling amounts of substance.

Experiment [2] deals with K. pneumoniae. Put plainly: Broth microdilution against US UTI pathogens 2019-2020. Conditions: K. pneumoniae (511); for % susceptible; CLSI: cefuroxime: oral breakpoint. The protocol: (§2) This study assessed the in vitro activity of tebipenem and comparator agents against Enterobacterales (ENT) responsible for UTIs in the US during 2019-2020. A total of 3,576 ENT recovered from urine samples during the 2019-2020 STEWARD Surveillance Program were included in the study. Isolates were collected from medical centers in all 9 US Census Regions and were centrally tested for susceptibility by reference broth microdilution method. MIC interpretation was performed based on CLSI criteria.

Experiment [3] has as its system E. coli. The experiment is described as above. Conditions: E. coli (2,339); for % susceptible; CLSI: cefuroxime: oral breakpoint. Here is the method: as §2
For experiment [4], the system named is P. mirabilis. Described as above. Conditions: P. mirabilis (235); for % susceptible; CLSI: cefuroxime: oral breakpoint. The protocol: as §2
In experiment [5] the test system is Enterobacterales (ENT). Described as above. Conditions: for % susceptible; CLSI: cefuroxime: oral breakpoint. Here is the method:
as §2

For experiment [6], the system named is E. coli. Description: Susceptibility of E. coli from urinary tract infections, 18 EU countries 2020 (STEWARD). Conditions: for prevalence of resistant phenotype / Susceptibility rate: all E. coli; for MIC90: Escherichia coli, all E. coli (764) from UTIs; for Susceptibility rate: EUCAST criteria. Here is the method: The study assessed the prevalence of resistance and evaluated the activity of oral tebipenem (TBP) and comparators against EC from urinary tract infections.
Results were interpreted using EUCAST criteria. […] ESBL phenotypes were determined by CLSI criteria and sequenced to identify CTX-M-15 genotype and clonal complex ST131.

In experiment [7] the test system is Enterobacterales overproducing AmpC. Description: Broth microdilution susceptibility of isolates overexpressing AmpC. The protocol:
(§3) Frozen-form broth microdilution panels were manufactured by JMI Laboratories and contained cation-adjusted Mueller-Hinton broth. Quality assurance was performed by sterility checks, colony counts, and testing CLSI recommended quality control reference strains.

Experiment [8] relates to E. coli. Put plainly: Broth microdilution MIC against characterized subsets of UTI E. coli (2018-2020). The text has this:
Isolates were collected from medical centers in all 9 US Census Regions and tested by broth microdilution. MIC interpretation was based on CLSI. Isolates that met MIC criteria were subjected to genome sequencing, followed by screening of extended-spectrum b-lactamase (ESBL) genes and epidemiology typing (MLST).

Experiment [9] deals with P. aeruginosa isolates that overproduced AmpC. Put plainly: Broth microdilution susceptibility of isolates overexpressing AmpC. Conditions: P. aeruginosa (32). The protocol:
as §3

Experiment [10] relates to AmpC production in Enterobacterales. Put plainly: AmpC induction (nitrocefin hydrolysis after drug exposure). Conditions: tebipenem/imipenem except for C. koseri and S. marcescens. Here is the method:
(§4) AmpC induction was determined as follows. Baseline MIC values were determined by broth microdilution method, as described above, for 9 Gram-negative isolates with basal expression of ampC. These isolates were cultured overnight on blood agar plates. A standardized inoculum made from fresh overnight plate cultures was added to flasks containing 50 mL of Luria-Bertani (LB) broth and incubated by shaking at 37° C. to OD600 of 0.3. […] These cultures were incubated under shaking conditions. A 40 mL aliquot of bacterial cultures was sampled at time 0 and 2 hours after drug exposures. Each sample aliquot was harvested by centrifugation and the supernatant was discarded.
(§5) Protein crude extract preparations were made in 200 μL of BugBusterR (Novagen, Darmstadt, Germany) per manufacturer instructions and cell debris was removed by centrifugation. Protein concentrations were determined in each crude extract by standard methodologies.
(§6) AmpC induction was measured by the intensity of β-lactamase hydrolytic activity against 0.1 mM nitrocefin in 0.1 M phosphate buffer at pH 7.0 using spectrophotometry at 482 nm (Δ absorbance/minute/mg of protein). The drug exposure conditions that caused a >4-fold increase in hydrolysis activity compared to the baseline were subjected to postinduction experiments. Briefly, cells were grown under the same conditions as before and tested for susceptibility by broth microdilution.

The subject of experiment [11] is AmpC production in P. aeruginosa. The experiment is described as above. Here is the method: as §4, §5, §6
Experiment [12] concerns other methicillin-susceptible coagulase-negative staphylococci (MSCONS). Put plainly: Broth microdilution against Gram-positive clinical isolates. Here is the method:
The purpose of this study was to investigate the in vitro activity of tebipenem and comparator agents, including ertapenem and meropenem, against a recent collection of Gram-positive isolates associated with clinical infections. The susceptibility of 580 Gram-positive organisms were tested, including: […] Bacterial species were identified by JMI Laboratories using standard microbiology methods and matrix-assisted laser desorption ionization-time of flight mass spectrometry (Bruker Daltonics, Bremen, Germany). […] Isolates were tested in a central laboratory (JMI Laboratories) for antimicrobial susceptibility using the CLSI […] (2018) reference broth microdilution method. JMI Laboratories produced frozen-form 96-well panels and used cation-adjusted Mueller-Hinton broth (CA-MHB) as the testing medium. […] Quality control organisms include Escherichia coli ATCC 25922, Escherichia coli ATCC 35218, Enterococcus faecalis ATCC 29212, Pseudomonas aeruginosa ATCC 27853, and Staphylococcus aureus ATCC 29213 were tested concurrently with clinical isolates.

Experiment [13] concerns Methicillin-susceptible Staphylococcus aureus (MSSA). The experiment is described as above. Here is the method: as §1
Experiment [14] has as its system Methicillin-susceptible Staphylococcus epidermidis (MSSE). Described as above. Here is the method: as §1

As for `CC1(C)S[C@@H]2[C@H](NC(=O)[C@H](N)c3ccccc3)C(=O)N2[C@H]1C(=O)O` [ampicillin], in experiment [1], the Susceptibility rate was determined as 100.0%.
On to `C[C@H]1COc2c(N3CCN(C)CC3)c(F)cc3c(=O)c(C(=O)O)cn1c23` [Levofloxacin, levofloxacin], for which the “% susceptible; CLSI” value in experiment [2] is on record as “(87.1) %”; in experiment [3], “(75.7) %”; in experiment [4] it was “(71.8) %”; in experiment [5] (All (3,567)) it was “(79.4) %”. Moreover, the Susceptibility rate in [1] amounted to 80.6%. Moreover, the “prevalence of resistant phenotype” value in experiment [6] is on record as 20.6%.
On to amoxicillin-clavulanate (2:1) [A/C], for which the “CLSI %1” value in [7] (Enterobacterales (36)) was 11.1%. The “CLSI % R” value in experiment [7] (Enterobacterales (36)) is given as 86.1%. Moreover, the “CLSI % S” value in experiment [7] (Enterobacterales (36)) was 2.8%. Moreover, the MIC50 in experiment [7] (Enterobacterales (36)) is over 32 μ/ml; in experiment [2] it was 2000 µg/mL; in experiment [3] it was 4000 µg/mL; in experiment [4], 1/1 mg/mL; in experiment [5] (All (3,567)) it was 4000 µg/mL; in [8] (CTX-M a), 8 µg/mL. Besides, the values for the MIC50 in experiment [8] (ESBL (360)) and in [8] (Non-ESBL (2035)) were 16 µg/mL and 4 µg/mL, respectively. Besides, the MIC90 in [7] (Enterobacterales (36)) is over 32 μ/ml; in [2], 16000 µg/mL; in experiment [3], 16000 µg/mL; in [4], 1/1 mg/mL; in experiment [5] (All (3,567)), 32000 µg/mL; in [8] (CTX-M a), 16 µg/mL. The values for the MIC90 in [8] (ESBL (360)) and in experiment [8] (Non-ESBL (2035)) were 32 µg/mL and 16 µg/mL, respectively. The “% susceptible; CLSI” value in experiment [2] was “(86.7) %”; in experiment [3], “(80.8) %”; in experiment [4], “(96.6) %”; in [4] (listed as amoxicillin/clavulanate) it was 96.6%; in experiment [5] (All (3,567)), “(76.1) %”. In addition, the figures for the “% susceptible by CLSI M100 criteria” value in experiment [8] (CTX-M a), in experiment [8] (ESBL (360)) and in experiment [8] (Non-ESBL (2035)) were 57.6%, 47.2% and 86.6%, respectively.
As for `CC(C)(O/N=C(\C(=O)N[C@@H]1C(=O)N2C(C(=O)[O-])=C(C[n+]3ccccc3)CS[C@H]12)c1csc(N)n1)C(=O)O` [Ceftazidime], the “CLSI %1” value in [7] (Enterobacterales (36)) was 11.4%. In addition, the “CLSI % R” value in experiment [7] (Enterobacterales (36)) worked out at 60.0%; in experiment [9], 71.9%. The “CLSI % S” value turned out to be 28.6% in experiment [7] (Enterobacterales (36)) and 15.6% in experiment [9]. In addition, the MIC50 in experiment [7] (Enterobacterales (36), read-out: MIC50) was 32 µg/mL (≈ 58.5 µM). Moreover, the MIC90 in experiment [7] (Enterobacterales (36), read-out: MIC90) is over 32 µg/mL; in experiment [5] (against ENT, EC, and KPN, read-out: MIC90), 8 to 16 µg/mL (≈ 14.6 to 29.3 µM). The “% susceptible; CLSI” value in [2] is “(86.1) %”; in [3] it was “(89.3) %”; in [4] it was “(98.7) %”; in experiment [4] (listed as CAZ), 98.7%; in experiment [5] (All (3,567)), “(88.1%)”. For the same compound, the susceptibility in experiment [5] (against ENT, EC, and KPN) is 86.1-89.3%. For the same compound, the “effect of exposure on production of AmpC” value is “did not seem to affect production of AmpC” in [10] and “increased the production of AmpC” in experiment [11].
Regarding `C[C@@H](O)[C@H]1C(=O)N2C(C(=O)O)=C(S[C@@H]3CN[C@H](C(=O)N(C)C)C3)[C@H](C)[C@H]12` [Meropenem, meropenem], in experiment [7], the MIC50 worked out at 0.03 µg/mL (≈ 0.0782 µM) and the MIC90 was 0.12 µg/mL (≈ 0.313 µM). In experiment [7] (Enterobacterales (36)), the “CLSI %1” value is reported as 0.0%, the “CLSI % R” value is 0.0%, the “CLSI % S” value is listed as 100.0% and the MIC50 is recorded as 0.03 μ/ml. Besides, in experiment [7] (Enterobacterales (36)), the MIC90 is recorded as 0.12 μ/ml and the MIC range is at most 0.015 to 1 μ/ml. Moreover, in experiment [9], the “CLSI %1” value is 0.0%, the “CLSI % R” value turned out to be 0.0%, the “CLSI % S” value worked out at 100.0% and the MIC range was in the range of 0.12 to 2 μ/ml. The same compound showed an MIC90 in experiment [1] (Enterococcus faecalis, 31 isolates) of over 1 µg/mL. In [6], this compound showed an MIC90 of 0.03 µg/mL (≈ 0.0782 µM) and a Susceptibility rate of 100%.
Turning to trimethoprim-sulfamethoxazole [TMP-SMX], the MIC50 was at most 120 µg/mL in [2], at most 120 µg/mL in [3], at most 0.12 mg/mL in experiment [4] and at most 120 µg/mL in [5] (All (3,567)). For the same compound, the MIC90 in experiment [2] is over 4000 µg/mL; in experiment [3], over 4000 µg/mL; in [4], over 4 mg/mL; in experiment [5] (All (3,567)) it was over 4000 µg/mL. The “% susceptible; CLSI” value in [2] was “(79.8) %”; in experiment [3] it was “(69.2) %”; in experiment [5] (All (3,567)), “(73.9) %”. In [12], the “susceptibility (% S)” value turned out to be 83.9%. In [6], the “prevalence of resistant phenotype” value turned out to be 30.1%.
In the case of `CC[C@H]1OC(=O)[C@H](C)[C@@H](O[C@H]2C[C@@](C)(OC)[C@@H](O)[C@H](C)O2)[C@H](C)[C@@H](O[C@@H]2O[C@H](C)C[C@H](N(C)C)[C@H]2O)[C@](C)(O)C[C@@H](C)C(=O)[C@H](C)[C@@H](O)[C@]1(C)O` [erythromycin], the “susceptibility (% S)” value in [12] amounted to 54.8%. For the same compound, the Susceptibility rate turned out to be 65.6% in [13] and 54.8% in experiment [14].
In [6], `CC1(C)S[C@@H]2[C@H](/N=C/N3CCCCCC3)C(=O)N2[C@H]1C(=O)O` [mecillinam] registered an MIC90 of over 8 µg/mL and a Susceptibility rate of 88.0%.
